One series has as its system MDA-MB-231. Nature of the series: Antiproliferative activity against human MDA-MB-231 cells assessed as inhibition of cell growth incubated for 7 days by MTT assay. It is filed as functional, cell-based. The conditions noted are these: MDA-MB-231, 168 h.
A short description of series [1]: Half-life in Sprague-Dawley rat at 10 mg/kg, po or 1 mg/kg, iv. It is filed as ADME, organism-based. The conditions noted are these: in vivo.
Series [2] has as its system HCT-116. The series can be described thus: Induction of apoptosis in human HCT-116 cells assessed as early apoptotic cells at 1 uM incubated for 3 days by annexinV-FITC/propidium iodide staining based flow cytometry (reference value: 7.67 %). The conditions noted are these: time 3 day. It is filed as functional. (In general: In flow cytometry, cells or beads pass a laser one at a time.)

The nature of series [3]: Toxicity in […] assessed as effect on body weight at 500 mg/kg, ip administered as single dose and measured on day 2 (reference value: 23.25 +/- 2.22 g). It is filed as organism-based. The settings on record: in vivo.
For series [4], the target named is T1, Protein mono-ADP-ribosyltransferase PARP10 (Homo sapiens, UniProt Q53GL7).
T1 sequence (Q53GL7 whole entry): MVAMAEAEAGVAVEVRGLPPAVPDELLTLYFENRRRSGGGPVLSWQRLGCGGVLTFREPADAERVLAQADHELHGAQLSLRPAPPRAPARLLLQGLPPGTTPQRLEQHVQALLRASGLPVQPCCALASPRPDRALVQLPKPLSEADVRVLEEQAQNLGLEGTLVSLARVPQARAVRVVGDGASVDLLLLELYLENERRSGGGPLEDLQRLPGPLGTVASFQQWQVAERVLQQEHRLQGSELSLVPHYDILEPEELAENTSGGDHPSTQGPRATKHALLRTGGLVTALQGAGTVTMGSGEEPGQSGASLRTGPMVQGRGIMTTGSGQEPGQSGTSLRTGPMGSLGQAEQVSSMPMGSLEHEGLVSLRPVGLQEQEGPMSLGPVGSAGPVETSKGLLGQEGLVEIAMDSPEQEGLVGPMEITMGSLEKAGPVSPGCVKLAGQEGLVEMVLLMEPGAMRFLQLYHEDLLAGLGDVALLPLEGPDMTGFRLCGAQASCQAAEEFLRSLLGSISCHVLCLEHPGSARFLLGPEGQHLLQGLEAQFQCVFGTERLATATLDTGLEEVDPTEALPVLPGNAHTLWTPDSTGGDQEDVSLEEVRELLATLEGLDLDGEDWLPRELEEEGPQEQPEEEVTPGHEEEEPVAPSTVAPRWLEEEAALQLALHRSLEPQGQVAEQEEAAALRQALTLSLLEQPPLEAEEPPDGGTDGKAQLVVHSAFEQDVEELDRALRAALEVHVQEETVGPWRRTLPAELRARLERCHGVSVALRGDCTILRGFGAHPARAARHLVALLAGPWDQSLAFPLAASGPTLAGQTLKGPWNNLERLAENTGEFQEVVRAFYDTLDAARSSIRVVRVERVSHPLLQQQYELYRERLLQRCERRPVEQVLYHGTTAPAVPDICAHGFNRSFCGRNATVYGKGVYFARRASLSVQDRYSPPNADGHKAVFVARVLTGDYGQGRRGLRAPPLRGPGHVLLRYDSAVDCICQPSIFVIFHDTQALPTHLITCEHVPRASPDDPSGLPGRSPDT
The series can be described thus: Inhibition of PARP-10 (unknown origin).

In series [5] the test system is HCT-116. Nature of the series: Inhibition of PARP in human HCT-116 cells assessed as decrease in pADPr levels at 10 uM by Western blot analysis. It is filed as cell-based. A general note: In western blotting, separated proteins are transferred to a membrane and probed.
The test system of series [6] is HCT-116. Nature of the series: Induction of cell cycle arrest in human HCT-116 cells assessed as G0/G1 phase cells at 1 uM incubated for 3 days by propidium iodide staining based flow cytometry (reference value: 68.35 %). It is filed as functional. The conditions noted are these: time 3 day.
Series [7] deals with HCT-116. The series can be described thus: Induction of cell cycle arrest in human HCT-116 cells assessed as G2/M phase cells at 1 uM incubated for 3 days by propidium iodide staining based flow cytometry (reference value: 68.35 %). It is filed as functional. The conditions noted are these: time 3 day.
The target of series [8] is T2, Protein mono-ADP-ribosyltransferase PARP12 (Homo sapiens, UniProt Q9H0J9).
T2 sequence (Q9H0J9 whole entry): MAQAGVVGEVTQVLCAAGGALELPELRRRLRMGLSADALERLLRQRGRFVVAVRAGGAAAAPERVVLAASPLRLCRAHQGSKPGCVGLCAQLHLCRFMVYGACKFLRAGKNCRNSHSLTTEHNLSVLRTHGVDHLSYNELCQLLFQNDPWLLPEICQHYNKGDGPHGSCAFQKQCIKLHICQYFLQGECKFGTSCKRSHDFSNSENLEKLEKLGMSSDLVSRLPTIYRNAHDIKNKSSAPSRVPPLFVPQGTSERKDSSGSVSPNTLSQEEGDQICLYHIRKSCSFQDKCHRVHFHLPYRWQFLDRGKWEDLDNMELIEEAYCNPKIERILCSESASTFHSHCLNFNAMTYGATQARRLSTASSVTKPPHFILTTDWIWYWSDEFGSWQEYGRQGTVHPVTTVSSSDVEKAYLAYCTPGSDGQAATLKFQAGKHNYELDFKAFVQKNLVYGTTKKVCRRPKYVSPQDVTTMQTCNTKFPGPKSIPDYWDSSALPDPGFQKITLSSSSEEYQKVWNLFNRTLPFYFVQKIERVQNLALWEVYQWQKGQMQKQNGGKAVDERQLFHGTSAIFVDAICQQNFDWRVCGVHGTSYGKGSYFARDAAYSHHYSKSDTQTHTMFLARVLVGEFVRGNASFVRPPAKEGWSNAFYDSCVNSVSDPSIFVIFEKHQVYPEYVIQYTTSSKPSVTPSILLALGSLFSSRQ
The series can be described thus: Inhibition of PARP-12 (unknown origin).

What is called IC50 is the point on the concentration scale where inhibition reaches its midpoint. Broadly, the half-life is the time in which the quantity being followed falls by half. Read a low half-life as fast loss.

The source made the active and inactive calls. The rule behind the calls is not given here.

In the case of `COc1ccc(NC(=O)c2ccc(NC(=O)N3CCN(C(=O)c4cc(Cc5n[nH]c(=O)c6ccccc56)ccc4F)CC3)cc2)cc1`, the half-maximal inhibitory concentration (IC50) is 870 nM with MDA-MB-231, 140 nM in series [4] and 371 nM in [8]. This compound showed a half-life in [1] of 1.73 h. Further, the Activity in the series on HCT-116 [2] came out at 6.86%; in series [3], 20.75 g; with HCT-116 [6], 59.2%; in the series on HCT-116 [7], 31.42%. Besides, in the series with HCT-116 [5], the inhibition entry is “Active”.

The values above are taken from ChEMBL document CHEMBL5120857, “Rational design, synthesis and biological evaluation of dual PARP-1/2 and TNKS1/2 inhibitors for cancer therapy” (Eur J Med Chem, 2022).
